Data taken from ChEMBL document CHEMBL3046228, “Synthesis of new bicyclo[4.1.0]heptane-2,4-dione derivatives and their herbicidal activity” (J Pestic Sci, 2007).

Assays:
Amaranthus retroflexus = experiment: Herbicidal activity against Amaranthus retroflexus assessed as induction of plant damage applied through foliar spraying; format: functional
Setaria faberi = experiment: Herbicidal activity against Setaria faberi (Giant Foxtail) assessed as induction of plant damage applied through foliar spraying; format: functional
Abutilon theophrasti = experiment: Herbicidal activity against Abutilon theophrasti (velvetleaf) assessed as induction of plant damage applied through foliar spraying; format: functional
Digitaria sanguinalis = experiment: Herbicidal activity against Digitaria sanguinalis (hairy crabgrass) assessed as induction of plant damage applied through foliar spraying; format: functional
Zea mays = experiment: Phytotoxicity against Zea mays (maize) assessed as induction of plant damage applied through foliar spraying; format: organism-based; settings: in vivo, other

O=C1CCCC(=O)C1C(=O)c1ccc(Cl)cc1[N+](=O)[O-]
ED80 (Amaranthus retroflexus): 125 gAi/ha
ED80 (Setaria faberi): 500 gAi/ha
ED80 (Abutilon theophrasti): 31 gAi/ha
ED80 (Digitaria sanguinalis): 250 gAi/ha
ED0 (Zea mays): 500 gAi/ha

CC1CCC(=O)C(C(=O)c2ccc(Cl)cc2[N+](=O)[O-])C1=O (stereo not given)
ED80 (Amaranthus retroflexus): 250 gAi/ha
ED80 (Abutilon theophrasti): 63 gAi/ha
ED80 (Digitaria sanguinalis): 63 gAi/ha
ED0 (Zea mays): 125 gAi/ha

CC1CC(=O)C(C(=O)c2ccc(Cl)cc2[N+](=O)[O-])C(=O)C1 (stereo not given)
ED80 (Amaranthus retroflexus): 125 gAi/ha
ED80 (Setaria faberi): 16 gAi/ha
ED80 (Abutilon theophrasti): 125 gAi/ha
ED80 (Digitaria sanguinalis): 31 gAi/ha
ED0 (Zea mays): 63 gAi/ha

CCCC1CC(=O)C(C(=O)c2ccc(Cl)cc2[N+](=O)[O-])C(=O)C1 (stereo not given)
ED80 (Amaranthus retroflexus): 2000 gAi/ha
ED80 (Abutilon theophrasti): >2000 gAi/ha
ED80 (Digitaria sanguinalis): 500 gAi/ha
ED0 (Zea mays): 125 gAi/ha

CCCCC1CC(=O)C(C(=O)c2ccc(Cl)cc2[N+](=O)[O-])C(=O)C1 (stereo not given)
ED80 (Amaranthus retroflexus): >2000 gAi/ha
ED80 (Abutilon theophrasti): 500 gAi/ha
ED80 (Digitaria sanguinalis): >2000 gAi/ha
ED0 (Zea mays): 1000 gAi/ha

CSCC1CC(=O)C(C(=O)c2ccc(Cl)cc2[N+](=O)[O-])C(=O)C1 (stereo not given)
ED80 (Amaranthus retroflexus): 500 gAi/ha
ED80 (Setaria faberi): 125 gAi/ha
ED80 (Abutilon theophrasti): 63 gAi/ha
ED80 (Digitaria sanguinalis): 250 gAi/ha
ED0 (Zea mays): 125 gAi/ha

COCC1CC(=O)C(C(=O)c2ccc(Cl)cc2[N+](=O)[O-])C(=O)C1 (stereo not given)
ED80 (Amaranthus retroflexus): 125 gAi/ha
ED80 (Abutilon theophrasti): 125 gAi/ha
ED80 (Digitaria sanguinalis): 500 gAi/ha
ED0 (Zea mays): 125 gAi/ha

CC1(C)CC(=O)C(C(=O)c2ccc(Cl)cc2[N+](=O)[O-])C(=O)C1
ED80 (Amaranthus retroflexus): 2000 gAi/ha
ED80 (Abutilon theophrasti): 125 gAi/ha
ED80 (Digitaria sanguinalis): 250 gAi/ha
ED0 (Zea mays): 500 gAi/ha

CC1CC(=O)C(C(=O)c2ccc(Cl)cc2[N+](=O)[O-])C(=O)C1C (stereo not given)
ED80 (Amaranthus retroflexus): 500 gAi/ha
ED80 (Setaria faberi): 31 gAi/ha
ED80 (Abutilon theophrasti): 125 gAi/ha
ED80 (Digitaria sanguinalis): 31 gAi/ha
ED0 (Zea mays): 125 gAi/ha

O=C1CC2CCCCC2C(=O)C1C(=O)c1ccc(Cl)cc1[N+](=O)[O-] (stereo not given)
ED80 (Amaranthus retroflexus): 2000 gAi/ha
ED80 (Setaria faberi): 2000 gAi/ha
ED80 (Abutilon theophrasti): 500 gAi/ha
ED80 (Digitaria sanguinalis): 500 gAi/ha
ED0 (Zea mays): 500 gAi/ha

O=C1CC2CCCC2C(=O)C1C(=O)c1ccc(Cl)cc1[N+](=O)[O-] (stereo not given)
ED80 (Amaranthus retroflexus): 500 gAi/ha
ED80 (Setaria faberi): 500 gAi/ha
ED80 (Abutilon theophrasti): 500 gAi/ha
ED80 (Digitaria sanguinalis): 250 gAi/ha
ED0 (Zea mays): 63 gAi/ha

O=C1C[C@H]2C[C@H]2C(=O)C1C(=O)c1ccc(C(F)(F)F)cc1[N+](=O)[O-] (relative stereo)
ED80 (Amaranthus retroflexus): 63 gAi/ha
ED80 (Setaria faberi): 63 gAi/ha
ED80 (Abutilon theophrasti): 16 gAi/ha
ED80 (Digitaria sanguinalis): 63 gAi/ha
ED0 (Zea mays): 31 gAi/ha

CS(=O)(=O)c1ccc(C(=O)C2C(=O)C[C@H]3C[C@H]3C2=O)c(Cl)c1 (relative stereo)
ED80 (Amaranthus retroflexus): 31 gAi/ha
ED80 (Setaria faberi): 63 gAi/ha
ED80 (Abutilon theophrasti): 16 gAi/ha
ED80 (Digitaria sanguinalis): 125 gAi/ha
ED0 (Zea mays): 125 gAi/ha

Cc1cc(S(C)(=O)=O)ccc1C(=O)C1C(=O)C[C@H]2C[C@H]2C1=O (relative stereo)
ED80 (Amaranthus retroflexus): 63 gAi/ha
ED80 (Setaria faberi): 250 gAi/ha
ED80 (Abutilon theophrasti): 16 gAi/ha
ED80 (Digitaria sanguinalis): 250 gAi/ha
ED0 (Zea mays): 250 gAi/ha

O=C1C[C@H]2C[C@H]2C(=O)C1C(=O)c1ccc(Cl)cc1[N+](=O)[O-] (relative stereo)
ED80 (Amaranthus retroflexus): 63 gAi/ha
ED80 (Setaria faberi): 125 gAi/ha
ED80 (Abutilon theophrasti): 16 gAi/ha
ED80 (Digitaria sanguinalis): 63 gAi/ha
ED0 (Zea mays): 16 gAi/ha

COc1ccc(C(=O)C2C(=O)C[C@H]3C[C@H]3C2=O)c([N+](=O)[O-])c1 (relative stereo)
ED80 (Amaranthus retroflexus): 500 gAi/ha
ED80 (Setaria faberi): 125 gAi/ha
ED80 (Abutilon theophrasti): 125 gAi/ha
ED80 (Digitaria sanguinalis): 125 gAi/ha
ED0 (Zea mays): 31 gAi/ha

CSc1ccc(C(=O)C2C(=O)C[C@H]3C[C@H]3C2=O)c([N+](=O)[O-])c1 (relative stereo)
ED80 (Amaranthus retroflexus): 31 gAi/ha
ED80 (Setaria faberi): 250 gAi/ha
ED80 (Abutilon theophrasti): 16 gAi/ha
ED80 (Digitaria sanguinalis): 63 gAi/ha
ED0 (Zea mays): 125 gAi/ha

CS(=O)(=O)c1ccc(C(=O)C2C(=O)C[C@H]3C[C@H]3C2=O)c([N+](=O)[O-])c1 (relative stereo)
ED80 (Amaranthus retroflexus): 63 gAi/ha
ED80 (Setaria faberi): 250 gAi/ha
ED80 (Abutilon theophrasti): 16 gAi/ha
ED80 (Digitaria sanguinalis): 125 gAi/ha
ED0 (Zea mays): 250 gAi/ha

CS(=O)(=O)c1ccc(C(=O)C2C(=O)CCCC2=O)c(Cl)c1 [SULCOTRIONE]
ED80 (Amaranthus retroflexus): 250 gAi/ha
ED80 (Setaria faberi): 250 gAi/ha
ED80 (Abutilon theophrasti): 16 gAi/ha
ED80 (Digitaria sanguinalis): 125 gAi/ha
ED0 (Zea mays): 250 gAi/ha
